Reference: patent US12312333B2, “SK channel positive allosteric modulators” (Chapman University, priority 2021, dated 2025)
“Also recorded” adds a separate entry of the source.

Key:
rat KCa2.2a [1] = target: T1, rat KCa2.2a (UniProt P0DP23+P70604); assay: Inside-out patch-clamp potentiation of KCa2.2a channels expressed in HEK293 cells; type: cell-based; conditions: for Emax: current at −90 mV at maximal compound concentration normalized to 10 μM Ca2+, read-out: Emax on KCa2.2a channels (I/Imax); for EC50: HEK293, 0.15 μM Ca2+, current at −90 mV, read-out: EC50 (mean ± SEM, μM) on potentiating KCa2.2a channels; for efficacy (Emax) on KCa2.2a channels: normalized to 10 μM Ca2+
T1 construct: expressed in transfected cells; host or cells: HEK293
Protocol: The impact of adding one substituent group at C4 of the cyclohexane moiety of CyPPA with either electron donating (OH (2a), NH2 (2b), CH2OH (2c), and OCH3 (2d)) or electron-withdrawing groups (F (2e) and NO2 (2f)) was explored. The potency of the newly synthesized compounds compared to the template CyPPA was measured via inside-out patch clamp electrophysiology recordings with KCa2.2a channels heterologously expressed in HEK293 cells (FIG. 1A). […] The responses induced by 10 μM Ca^2+ are considered the maximal currents of the KCa2.2a channels. To evaluate the efficacy (Emax) of compounds on KCa2.2a channels, the current amplitudes at −90 mV in response to the maximal concentration of compounds were normalized to that obtained at 10 μM Ca^2+ (I/Imax (%), FIG. 1C).
The effect of newly synthesized compounds on the KCa2.x/KCa3.1 channels was investigated as previously described (Nam, Y. W.; et al, Acta Physiol (Oxf) 2020, e13552; Nam, Y. W.; et al. Scientific reports 2018, 8 (1), 10749). Briefly, the rat KCa2.2a, human KCa2.1, human KCa2.3 or human KCa3.1 channels cDNA constructs were either generated in-house or through molecular cloning services (Genscript). The channel cDNAs, along with CaM and GFP, at a ratio of 7:4:2 (ORF ratios), were transfected into HEK293 cells by the calcium-phosphate method. KCa currents were recorded 1-2 days after transfection, with an Axon200B amplifier (Molecular Devices) at room temperature. The resistance of the patch electrodes ranged from 3-5 MΩ. The pipette solution contained (in mM): 140 KCl, 10 Hepes (pH 7.4), 1 MgSO4. The bath solution containing (in mM): 140 KCl, 10 Hepes (pH 7.2), 1 EGTA, 0.1 Dibromo-BAPTA, and 1 HEDTA was mixed with Ca^2+ to obtain the desired free Ca^2+ concentrations, calculated using the software by Chris Patton of Stanford University (https://somapp.ucdmc.ucdavis.edu/pharmacology/bers/maxchelator/webmaxc/webmaxcS.htm). The Ca^2+ concentrations were verified using a Ca^2+ calibration buffer kit (Thermo Fisher Scientific). Briefly, a standard curve was generated using the Ca^2+ buffers from the kit and a fluorescence Ca^2+ indicator. Then, the Ca^2+ concentrations of the bath solution were determined through interpolation on the standard curve.
High resistance seals (>1 GΩ) were formed before inside-out patches were obtained. The seal resistance of inside-out patches was >1 GΩ, when the intracellular face was initially exposed to a zero-Ca^2+ bath solution. Currents were recorded by repetitive 1-s-voltage ramps from −100 mV to +100 mV from a holding potential of 0 mV. The currents were filtered at 2 kHz and digitized at a sampling frequency of 10 kHz. At the end of experiment, the integrity of the patch was examined by switching the bath solution back to the zero-Ca^2+ buffer. Data from patches, which maintained the seal resistance (>1 GΩ) after solution changes, were used for further analysis.
To measure the effect of CyPPA (Alomone Labs) and newly synthesized compounds, the intracellular face was exposed to bath solutions with 0.15 μM Ca^2+. One minute after switching of bath solutions, ten sweeps with a 1-s interval were recorded at a series of concentrations of compound in the presence of 0.15 μM Ca^2+. The maximal KCa2.x/KCa3.1 current in response to 10 μM Ca^2+ was then recorded.
Patch-clamp recordings were analyzed using Clampfit 10.5 (Molecular Devices LLC) and concentration-response curves were analyzed in GraphPad Prism 9.0.2 (GraphPad Software Inc.). To construct the concentration-dependent potentiation of channel activities by compound, the current amplitudes at −90 mV in response to various concentrations of the compound were normalized to that obtained at a maximal concentration of compound. The normalized currents were plotted as a function of the concentrations of the compound. EC50 values and Hill coefficients were determined by fitting the data points to a standard concentration-response curve (Y=100/(1+(X/EC50)^−Hill)). […]

[2] = Solubility noted during patch-clamp concentration-response; type: physicochemical; conditions: bath solution, 200 μM
human KCa2.3 channels = target: T2, human KCa2.3 channels (Homo sapiens, UniProt P0DP23+Q9UGI6); conditions: cited from earlier work
T2 construct: expressed in transfected cells; host or cells: HEK293

rat KCa2.2a [3] = target: T1, rat KCa2.2a; conditions: KCa2.2/KCa2.3 vs KCa2.1/KCa3.1; cited from earlier work

## Cc1cc(Nc2cc(C(=O)O)ccc2F)nc(-n2nc(C)cc2C)n1 [Compound 2v, 3-((2-(3,5-Dimethyl-1H-pyrazol-1-yl)-6-methylpyrimidin-4-yl)amino)-4-fluorobenzoic acid]
Rat KCa2.2a [1]; HEK293
  Emax: 50 ± 5.78%
Rat KCa2.2a [1]; inside-out patch
  EC50: 37.6 ± 3.66 µM
Rat KCa2.2a [1]
  efficacy (Emax) on KCa2.2a channels: reduced efficacy
[2]
  solubility: limited solubility at 200 μM

## Cc1cc(NC2CCCCC2)nc(-n2nc(C)cc2C)n1 [CyPPA, N-cyclohexyl-2-(3,5-dimethyl-1H-pyrazol-1-yl)-6-methylpyrimidin-4-amine]
Rat KCa2.2a [1]; HEK293
  Emax: 82.4 ± 4.91%
Rat KCa2.2a [1]; inside-out patch
  EC50: 7.48 ± 0.56 µM
Human KCa2.3 channels
  potency on KCa2.3 compared to KCa2.2a channels, background statement: slightly but significantly higher potency on KCa2.3 channels than KCa2.2a channels
Rat KCa2.2a [3]
  subtype selectivity, previously reported: selectively potentiates KCa2.2a and KCa2.3, but not KCa2.1 and KCa3.1 channel subtypes; also recorded: potentiate the KCa2.2 and KCa2.3, but not the KCa2.1 and KCa3.1 channel subtypes

## N^1-(3-Chloro-4-fluorophenyl)-2-(3,5-dimethyl-1H-pyrazol-1-yl)pyrimidine-4,6-diamine [Compound 4]
Rat KCa2.2a [1]; inside-out patch, HEK293
  activity / potency on KCa2.2a channels: reduced potency
Rat KCa2.2a [1]; inside-out patch
  EC50: 6.59 ± 0.64 µM
Rat KCa2.2a [1]
  efficacy (Emax) on KCa2.2a channels: retaining their efficacy

## N^1-(3-Chloro-4-fluorophenyl)-6-(3,5-dimethyl-1H-pyrazol-1-yl)pyrimidine-2,4-diamine [Compound 3b]
Rat KCa2.2a [1]; inside-out patch
  EC50: > 100 µM

## N^1-(3-Chlorophenyl)-6-(3,5-dimethyl-1H-pyrazol-1-yl)pyrimidine-2,4-diamine [Compound 3a]
Rat KCa2.2a [1]; inside-out patch
  EC50: > 100 µM

## N^1-(4-Chloro-2-fluorophenyl)-6-(3,5-dimethyl-1H-pyrazol-1-yl)pyrimidine-2,4-diamine [Compound 3d]
Rat KCa2.2a [1]; inside-out patch
  EC50: > 100 µM

## N^1-(5-Chloro-2-fluorophenyl)-6-(3,5-dimethyl-1H-pyrazol-1-yl)pyrimidine-2,4-diamine [Compound 3c]
Rat KCa2.2a [1]; inside-out patch
  EC50: > 100 µM
